Like-named read-outs stand apart in the source and are kept apart here.
Tests used:
brain 5-HIAA = assay: Brain (frontal cortex) 5-HIAA tissue levels in mice after 14 days of treatment; type: in vivo; conditions: for augmentation of the brain 5-HIAA tissue elevation induced by 5-HTP: carbidopa 2, 5 or 10 mg/kg/day added to 5-HTP 200 mg/kg/day, more pronounced in 5-HTHypo mice
Text: (§1) Mice: Adult mice were used, both wildtype (WT) mice with normal 5-HT levels and ‘5-HTHypo’ mice with reduced brain 5-HT synthesis and levels (Beaulieu et al, 2008). The 5-HTHypo mice are a naturalistic model of brain 5-HT deficiency, which is known to be a pathogenic factor in several CNS disorders, e.g. depression and suicide.
(§2) Drug treatments: Carbidopa was used as a PDI. To model oral drug delivery occurring in humans during a therapeutic scenario, 5-HTP and carbidopa was delivered via the mouse food (standard chow). This approach distributed the drug delivery over time, imparting a measure of ‘slow-release’ (aka sustained-, extended-, time-, controlled-release) delivery. 5-HTP was administered in a dose of 200 mg/kg/day. Carbidopa was administered in doses of 2, 5 or 10 mg/kg/day in addition to 5-HTP, to assess the effect of carbidopa on the outcomes of 5-HTP treatment. To assess the effect of carbidopa alone, groups of mice were also administered carbidopa 10 mg/kg/day, the highest carbidopa dose, without concomitant 5-HTP. Comparisons were made to untreated mice. Duration of all treatments was 14 days, which is considered chronic in mouse experiments.
(§3) Sample collection: During treatments blood samples were collected to assess plasma levels of 5-HTP and carbidopa. At end of treatments mice were euthanized and brain tissues (frontal cortex) were collected.
(§4) Quantitative analysis: Levels of plasma 5-HTP, plasma carbidopa, brain 5-HT, and brain 5-hydroxyindoleacetic acid (5-HIAA, major 5-HT metabolite) were quantified using HPLC, as described (Jacobsen et al, 2012b). The limits of detection for 5-HT and 5-HTP in plasma were 1 ng/ml and for carbidopa in plasma 2 ng/ml (FIG. 4C).

[1] = Plasma 5-HTP levels in mice given 5-HTP and/or carbidopa via food for 14 days; type: in vivo; conditions: for augmentation of the 5-HTP plasma elevation induced by 5-HTP: carbidopa 2, 5 or 10 mg/kg/day added to 5-HTP 200 mg/kg/day, similar in WT and 5-HTHypo mice
Text: as §1, §2, §3, §4

[2] = animal studies (Shindo et al, 1977); cited from earlier work
brain 5-HT = assay: Brain (frontal cortex) 5-HT tissue levels in mice after 14 days of treatment; type: in vivo; conditions: for augmentation of the brain 5-HT tissue elevation induced by 5-HTP: carbidopa 2, 5 or 10 mg/kg/day added to 5-HTP 200 mg/kg/day, more pronounced in 5-HTHypo mice
Text: as §1, §2, §3, §4

[3] = cited from earlier work
[4] = animals; including kidney insufficiency and growth anomalies; cited from earlier work
[5] = test system: aromatic amino acid decarboxylase enzyme (AAAD); conditions: after oral administration (Da Prada et al, 1987); cited from earlier work
[6] = cited from earlier work; remark: listed apart in the source
[7] = Carbidopa plasma levels in humans at therapeutic doses (literature); type: in vivo; conditions: reported human chronic studies with carbidopa and 5-HTP; extrapolated across references
[8] = HPLC electrochemical quantification of carbidopa in mouse plasma; type: in vivo, mice
Method: FIG. 4A-4D. HPLC electrochemical quantification of carbidopa in plasma. FIG. 4A: 10 ng/ml standard in perchloric acid. Carbidopa peak visible at 24 min. FIG. 4B: Plasma extract from mouse not treated with carbidopa. […] Baseline undulations at 24 min is detector noise. FIG. 4C: Plasma extract from a mouse not treated with carbidopa, but the plasma spiked with carbidopa to a concentration of 2 ng/ml prior to extraction. Carbidopa peak visible at 24 min. FIG. 4D: Plasma extract from mouse treated with 10 mg/kg/day carbidopa. […] Baseline undulations at 24 min is detector noise, as indicated.
as §2, §3, §4

[9] = 5-HTP 200 mg/kg/day alone via food, 14 days, vs untreated
[10] = carbidopa 10 mg/kg/day alone, without 5-HTP, 14 days
[11] = steady state, therapeutic scenario

For `N[C@@H](Cc1c[nH]c2ccc(O)cc12)C(=O)O` [5-HTP, 5-hydroxytryptophan], the “levels of brain 5-HIAA” value (brain 5-HIAA; [9]) is given as “elevated”, the “levels of plasma 5-HTP” value ([1]; 5-HTP 200 mg/kg/day alone via food, 14 days, vs untreated, WT and 5-HTHypo mice) is given as “elevated” and the “exogenously administered 5-HTP converted to 5-HT during transport over the intestinal wall” value [2] is given as “more than 50%”. The “levels of brain 5-HT” value (brain 5-HT; [9]) was “elevated”, the oral bioavailability ([3]; 5-HTP (Gijsman et al, 2002)) was “modest” and the “T1/2 (elimination half-life)” value ([3]; 5-HTP in humans, oral) was roughly 2 h. The TMax ([3]; 5-HTP in humans, oral) was roughly 1 h, the T1/2 ([3]; immediate-release oral 5-HTP) was “about 2 hours” and the TMax ([3]; immediate-release oral 5-HTP) was 1 to 2 h.
In the case of `NC(CO)C(=O)NNCc1ccc(O)c(O)c1O` (centres unmarked) [benserazide], the “toxicity of chronic PDI treatment without levodopa” value [4] is listed as “significant toxic effects” and the “potency as inhibitor of AAAD in the peripheral organs relative to carbidopa” value [5] is listed as 10 fold.
For `C[C@@](Cc1ccc(O)c(O)c1)(NN)C(=O)O` [carbidopa], the “effect on brain 5-HIAA” value (brain 5-HIAA; [10]) was “no effects”, the “augmentation of the brain 5-HIAA tissue elevation induced by 5-HTP” value (brain 5-HIAA) was “manifold and dose-dependently augmented” and the “augmentation of the brain 5-HIAA tissue elevation induced by 5-HTP” value (brain 5-HIAA; listed as Carbidopa) was “dose-dependently augmented”. The “usual systemically active plasma levels” value ([6]; Verhagen et al, 2015, Yeh et al, 1989) was 25 ng/mL, the “average plasma levels of carbidopa at maintenance doses” value [6, 11] was no less than 25 ng/mL and the “range of average plasma levels of carbidopa at maintenance doses” value [6, 11] was 25 to 150 ng/mL. For the same molecule, the “average carbidopa plasma levels” value [7] was greater than 25 ng/mL, the plasma carbidopa levels ([8]; carbidopa 10 mg/kg/day, the highest dose, limit of detection 2 ng/ml) was less than 2 ng/mL and the “carbidopa peak in HPLC of plasma extract (FIG. 4D)” value ([8]; mouse treated with 10 mg/kg/day carbidopa) was “No carbidopa peak visible”. For the same molecule, the “plasma exposure levels lower than usual systemically active levels” value ([8]; relative to 25 ng/ml) was “at least 12 times”, the “enhancing 5-HTP bioavailability and pharmacodynamic (brain 5-HT) effects” value ([1]; 5-HTP:carbidopa ratios of 20:1 to 100:1) was “effective” and the “effect on plasma 5-HTP” value [1, 10] was “no effects”. For the same molecule, the “augmentation of the 5-HTP plasma elevation induced by 5-HTP” value [1] was “manifold and dose-dependently augmented”, the “augmentation of the 5-HTP plasma elevation induced by 5-HTP” value ([1]; listed as Carbidopa) was “dose-dependently augmented” and the “toxicity of chronic PDI treatment without levodopa” value [4] was “significant toxic effects”. The “effect on brain 5-HT” value (brain 5-HT; [10]) was “no effects”, the “augmentation of the brain 5-HT tissue elevation induced by 5-HTP” value (brain 5-HT) was “manifold and dose-dependently augmented” and the “augmentation of the brain 5-HT tissue elevation induced by 5-HTP” value (brain 5-HT; listed as Carbidopa) was “dose-dependently augmented”.

Reference: patent US11337963B2, “Compositions and methods of enhancing 5-hydroxytryptophan bioavailability” (Duke University, priority 2018, dated 2022)
